Where a SMILES comes first, the peptide text is derived from it. [ ]: non-standard residue; d: D form. The star is where a group is joined. Sta = CC(C)C[C@H](N)[C@@H](O)CC(=O)O; Isovaleryl = CC(C)CC(=O)*

Test [1] concerns the target potato protease inhibitor-insensitive cysteine proteases of Colorado potato beetle (Leptinotarsa decemlineata) larval gut extracts. The test is described as follows: cell-based or functional assay.
For test [2], the target named is proteases in extracts of adult western flower thrips (Frankliniella occidentalis). In words: cell-based or functional assay.
Test [3] has as its target proteases in extracts of adult leafminer flies (Liriomyza trifolii). In words: cell-based or functional assay.
Test [4] concerns thrips protease activity. The test is described as follows: Protease activity of adult western flower thrips extract, FITC-hemoglobin. Format: biochemical, Frankliniella occidentalis. Further details: inhibition of protease activity: concentration or dose not given beside the values. Particulars: for residual protease activity: thrips pH 3.5, equistatin purified from sea anemone; for inhibition of protease activity: thrips, pH 3.5. The procedure:
(§1) Adult western flower thrips (Frankliniella occidentalis) and leafmirer flies (Liriomyza trifolii) adult were harvested from a culture maintained on chrysanthemum plants and complete thrips and flies were homogenized in extraction on buffer (200 mM β-alanine-HCl, pH 3.5) in a volume of 5 times the weight of the insects. The buffer pH was at the previously determined pH optimum of protease activity towards hemoglobin. Final instar Colorado potato beetle larvae maintained on potato plants as described in example 5 were checked for gut aspartic protease activity by preparing a total gut extract in pH 3 buffer which is optimal for Colorado potato beetle aspartic proteases (200 mM glycine, pH 3). Guts were homogenized in 100 μl buffer per gut. Third instar western corn rootworm larvae maintained on corn roots were used to remove the guts. Ten guts were homogenized in 100 μl water and spinned twice to remove insoluble material. Two types of buffers were used in the enzymatic assay. One with a pH presumably favoring cysteine proteases (50 mM MES, pH 6.5; 0.6 mg/ml L-cysteine) and one for detecting aspartic proteases (200 mM glycine, pH 3). Supernatants were stored at −20° C.
(§2) 2 μl gut extract was combined with 2 μl inhibitor (2 mM pepstatin in methanol, 4 mM E64 in water, 2 mg/ml recombinant equistatin in water. The concentration of the other proteinaceous inhibitors was not known exactly). Appropriate buffers were added to a final volume of 100 μl. After 15′ preincubation 20 μl substrate (5 mg/ml FITC-hemoglobin) was added and incubated for 30-45 min at 37 C.
(§3) Reaction was stopped by the addition of 100 μl 10% TCA. Tubes were centrifuged and 100 μl supernatant mixed with 100 μl 10 N NaOH was measured on a fluorimeter for the extent of hemoglobin hydrolysis. Measurements were done in duplicate on one (thrips, leafminer and western corn rootworm), or three (Colorado potato beetle) different gut extracts and varied by a maximum of +/−5%.

Test [5] concerns leafminer proteases. The test is described as follows: Protease activity of adult leafminer fly extract, FITC-hemoglobin. It counts as biochemical, Liriomyza trifolii. Conditions: for residual protease activity: leafminer pH 3.5, equistatin purified from sea anemone. The procedure: as §1, §2, §3
For test [6], the system named is Colorado potato beetle proteases. The test is described as follows: Protease activity of Colorado potato beetle larval gut extract at pH 3, FITC-hemoglobin. Particulars: for inhibition of total protease activity: Colorado potato beetle, pH3; for residual protease activity: colorado potato beetle pH 3, recombinant equistatin. It counts as biochemical, Leptinotarsa decemlineata. Also noted: inhibition of total protease activity / increase of inhibition by addition of equistatin to E64 / increase of inhibition by addition of equistatin to pepstatin: concentration or dose not given beside the values. Here is the method: as §1, §2, §3

The subject of test [7] is western corn rootworm cysteine and aspartic protease activity. The test is described as follows: Protease activity of western corn rootworm larval gut extract, FITC-hemoglobin. Format: biochemical, Diabrotica virgifera. Conditions: recombinant equistatin. The procedure:
as §1, §2, §3

Chain of p41 invariant chain fragment (P04233 210-274, change not shown): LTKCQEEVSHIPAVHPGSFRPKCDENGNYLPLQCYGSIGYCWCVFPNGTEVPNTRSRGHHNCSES

Turning to “p41 invariant chain fragment (from UniProt P04233 194-258)”, in test [1], the residual amino-peptidase activity (L-Arg-pNA), equimolar inhibitor (% of residual activity) came out at 85; the residual amino-peptidase activity (L-Arg-pNA), excess inhibitor (% of residual activity) came to 75; the residual broad spectrum endoprotease activity (Z-Phe-Arg-pNA), equimolar inhibitor (% of residual activity) is 30; the residual broad spectrum endoprotease activity (Z-Phe-Arg-pNA), excess inhibitor (% of residual activity) was 20. In test [1], this compound showed a residual general proteolytic activity (azocasein) in excess of inhibitor (% residual activity) of 10; a residual narrow spectrum endoprotease activity (Z-Arg-Arg-pNA), equimolar inhibitor (% of residual activity) of 20; a residual narrow spectrum endoprotease activity (Z-Arg-Arg-pNA), excess inhibitor (% of residual activity) of -5; a residual tri-peptidil-peptidase and endoprotease activity (pGlu-Phe-Leu-pNA), equimolar inhibitor (% of residual activity) of 10. Moreover, in test [1], the residual tri-peptidil-peptidase and endoprotease activity (pGlu-Phe-Leu-pNA), excess inhibitor (% of residual activity) is -5. Besides, the residual protease activity (FITC-hemoglobin), pH 3.5 (% residual activity) in test [2] was determined as 13. The compound also registered a residual protease activity (FITC-hemoglobin), pH 3.5 (% residual activity) in test [3] of 43.
bean cystatin: in test [2], the residual protease activity (FITC-hemoglobin), pH 3.5 (% residual activity) came to 14.
As for `CC(C)C[C@H](NC(=O)[C@H]1O[C@@H]1C(=O)O)C(=O)NCCCCN=C(N)N` (relative stereo) [E64, N-(L-3-trans carboxyoxiran-22-carbomyl)-L-leucyl-amido-4-guani-dobutane, reference compound], the residual protease activity was 8% in test [4]; 27% in test [5]; 76% in test [6]; 35% in test [7] (western corn rootworm pH 3); 51% in test [7] (western corn rootworm pH 6.5). For the same compound, the “inhibition of protease activity” value in test [4] amounted to 92%; in test [5] (leafminer) it was 73%. For the same compound, the “inhibition of total protease activity” value in test [6] is 24%.
Take `CC(C)CC(=O)N[C@H](C(=O)N[C@H](C(=O)N[C@@H](CC(C)C)[C@@H](O)CC(=O)N[C@@H](C)C(=O)N[C@@H](CC(C)C)[C@@H](O)CC(=O)O)C(C)C)C(C)C` [Pepstatin, reference compound] (Isovaleryl-VV[Sta]A[Sta]-OH): the residual protease activity in test [4] is on record as 84%; in test [5], 46%; in test [6], 18%; in test [7] (western corn rootworm pH 3), 45%; in test [7] (western corn rootworm pH 6.5), 58%. The “inhibition of protease activity” value in test [4] is on record as 16%. Also, in test [6], the “inhibition of total protease activity” value came out at 82%.

Source of the values: patent publication US6861578B1, “Method for plant protection against insects or nematodes by transformation with a nucleic acid encoding equistatin” (Plant Research International B.V., priority 1997, dated 2005).
